Experimental findings from patent US20150307532A1, “THIENOPYRIMIDINE INHIBITORS OF […] AND/OR […] PYROPHOSPHATE SYNTHASE” (THE ROYAL INSTITUTION FOR THE ADVANCEMENT OF …, priority 2012, published 2015) are described below.

In series [1] the test system is Human neuroblastomas SH-SY5Y cell line. Put plainly: Lactate dehydrogenase (LDH) activity / toxicity in neurons. The class given is cell-based. As to the method:
(§1) The commercially available INNOTEST® PHOSPHO-TAU(181P) solid-phase enzyme immunoassay was used. In this assay, the phosphorylated Tau protein or fragments are captured by a first monoclonal human specific antibody, HT7 (IgG1). Human immortalized neurons were treated with various compounds at […] and incubated with biotinylated AT270 (IgG1) monoclonal. This antigen-antibody complex is then detected by a peroxidase-labeled streptavidin. After addition of substrate working solution, samples develop a color. The color intensity is a measure for the amount of phosphorylated Tau protein in the sample. This assay has been standardized in numerous research laboratories (for examples see Vanderstichele, H. et al. Alzheimer's & Dementia 2012, 8, 65-73; Zimmermann, R. et al. Journal of Alzheimer's Diseases 2011, 25, 739-745; Blennow, K. et al. Molecular and Chemical Neuropathology 1995, 26, 231-245). Human neuroblastomas SH-SY5Y cell line were used and purchased at the ATCC under the label CRL2266. All compounds were tested in three fixed concentrations at 100 nM, 1 μM and 100 μM in duplicates. We used the 6 well culture plates to grown a significant density of neurons (330,000 cells/well). Cells were grown to 80% confluence in MEM-F12 media with 10% fetal bovine serum, the exposed for 24 hours to the different inhibitors. After one day, the supernatant was removed (and saved at −20° C.). The cell are washed repeatedly in PBS buffer and saved at −80° C. ELISA assays were performed on neuronal cell homogenates using a standardized assay developed by INNOGENETICS called Innotest Total Tau also refers to as the hTau assay and Innotest phospho-Tau (P181). Assays were performed as per manufacturer protocol. The concentration units are in pg of P-Tau per μg of total protein in the cell homogenate. […]; compounds which cause stress or damage to the neurons stimulate the production of P-Tau protein. Lactate dehydrogenase (LDH) activity was measured using a commercial kit; the maximum toxicity was based on % lactic acid dehydrogenases activity in the medium; the control was set at zero.

A further series deals with total Tau (T-Tau). The series is described as follows: Total Tau ELISA (Innotest Total Tau, hTau assay) in human immortalized neurons. The class given is cell-based. The note with it: compound 100 nM, 24 hours, SH-SY5Y cell homogenate. As to the method:
as §1
On the technique in general: ELISA stands for enzyme-linked immunosorbent assay.

For series [2], the system named is phosphorylated Tau protein. The series is described as follows: Phospho-Tau bioassay (INNOTEST PHOSPHO-TAU(181P) ELISA) in human immortalized neurons. The note with it: compound 100 nM; for P-Tau: 24 hours, SH-SY5Y cell homogenate; for Ratio P/T: P-Tau/T-Tau. It is filed as cell-based.
The next series concerns the target T1, human recombinant FPPS (Homo sapiens, UniProt P14324).
T1 sequence (P14324 1-419): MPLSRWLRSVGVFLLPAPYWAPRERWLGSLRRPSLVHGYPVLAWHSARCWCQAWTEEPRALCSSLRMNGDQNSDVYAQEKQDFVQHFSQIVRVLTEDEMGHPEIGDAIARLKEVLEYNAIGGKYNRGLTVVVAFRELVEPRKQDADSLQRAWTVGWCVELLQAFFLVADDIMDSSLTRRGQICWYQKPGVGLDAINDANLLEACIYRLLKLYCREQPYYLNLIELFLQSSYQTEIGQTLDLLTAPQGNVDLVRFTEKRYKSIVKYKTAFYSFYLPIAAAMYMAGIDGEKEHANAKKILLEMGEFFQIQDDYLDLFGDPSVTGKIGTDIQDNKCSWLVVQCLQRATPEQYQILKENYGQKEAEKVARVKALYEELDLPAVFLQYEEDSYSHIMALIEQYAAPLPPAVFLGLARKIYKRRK

Where [3] appears, read: read-out: IC50 (μM) in hFPPS Method 2, ~1 nM hFPPS, 0.2 μM GPP and IPP.

Like-named read-outs stand apart in the source and are kept apart here.

Protocol for human recombinant FPPS: In vitro Enzymatic Inhibition Assay for hFPPS: In vitro sensitized inhibition assay for hFPPS (M2):
For assays run with a 10 min pre-incubation period, the enzyme and inhibitor were incubated in the assay buffer in a volume of 80 μL at 37° C. for 10 min. After 10 min, the substrates were added to start the reaction and also bring the inhibitor and substrate to the desired final concentrations. After addition of all substrates, all assays were incubated at 37° C. for 8 min. Assays were terminated by the addition of 200 μL of HCl/methanol (1:4) and incubated for 10 min at 37° C. The assay mixture was then extracted with 700 μL of ligroin (in order to separate reaction products from unused substrate), dried through a plug of anhydrous MgSO4 and 300 μL of the ligroin phase was combined with 8 mL of scintillation cocktail. The radioactivity was then counted using a Beckman Coulter LS6500 liquid scintillation counter.

Turning to `O=P(O)(O)C(O)(Cn1ccnc1)P(=O)(O)O` [Zoledronic acid], the “toxicity to neurons” value in series [1] was “highly toxic”. Further, the LDH in series [1] (human, 24 h, 100 nM) stood at 60%. For the same compound, the T-Tau in the series with total Tau (T-Tau) was 34 pg/µg protein. Moreover, the P-Tau in series [2] is listed as 0.19 pg of P-Tau per μg of total protein. Take `O=P(O)(O)C(Nc1ncnc2sc(-c3ccc4ccccc4c3)cc12)P(=O)(O)O` [Example 10-1]: the IC50 on human recombinant FPPS (setting [3]) is 0.063 µM. Take `Cc1ccc(-c2sc3ncnc(NCP(=O)(O)O)c3c2N)cc1Cl` [Example 41-1]: the IC50 on human recombinant FPPS turned out to be 10 µM. `O=P(O)(O)C(Nc1ncnc2sc(-c3ccc(C(F)(F)F)cc3)cc12)P(=O)(O)O` [Example 6-1, (((6-(4-(trifluoromethyl)phenyl)thieno[2,3-d]pyrimidin-4-yl)amino)methylene)diphosphonic acid]: at human recombinant FPPS (setting [3]), the IC50 was 0.021 µM. For the compound `Cc1ccc(-c2sc3ncnc(NCP(=O)(O)O)c3c2N)cc1` [Example 21-1, (((5-amino-6-(p-tolyl)thieno[2,3-d]pyrimidin-4-yl)amino)methyl)phosphonic acid], the IC50 on human recombinant FPPS stood at 2.7 µM. In the case of `O=P(O)(O)CNc1ncnc2sc(-c3ccc(C4CC4)cc3)cc12` [Example 16-1, (((6-(4-cyclopropylphenyl)thieno[2,3-d]pyrimidin-4-yl)amino)methyl)phosphonic acid], in series [1] (human, 24 h, 100 nM), the LDH turned out to be 7%. Besides, the 50% inhibitory concentration (IC50) at human recombinant FPPS came to 29 µM. For the same compound, the T-Tau in the series with total Tau (T-Tau) was 47 pg/µg protein. Moreover, in series [2], the P-Tau was 0.35 pg of P-Tau per μg of total protein and the “Ratio P/T” value is 0.007. With `Cc1ccc(-c2cc3c(NC(c4ccccc4)P(=O)(O)O)ncnc3s2)cc1Cl` (stereo not drawn) [Example 37-1, (((6-(3-chloro-4-methylphenyl)thieno[2,3-d]pyrimidin-4-yl)amino)(phenyl)methyl)phosphonic acid], the IC50 on human recombinant FPPS came to 1.3 µM. On to `Cc1ccc(-c2cc3c(NC(P(=O)(O)O)P(=O)(O)O)ncnc3s2)cc1` [Example 5-1], for which, on human recombinant FPPS (setting [3]), the IC50 worked out at 0.022 µM.

For the compound `O=P(O)(O)C(Nc1ncnc2sc(-c3ccc(C4CC4(F)F)cc3)cc12)P(=O)(O)O` (stereo not drawn) [Example 13-1, (((6-(4-(2,2-difluorocyclopropyl)phenyl)thieno[2,3-d]pyrimidin-4-yl)amino)methylene)diphosphonic acid], on human recombinant FPPS (setting [3]), the concentration for half-maximal inhibition (IC50) was determined as 0.011 µM. Turning to `O=P(O)(O)C(O)(Cc1cccnc1)P(=O)(O)O` [Risedronic acid], the Toxicity entry in series [1] (compound 100 nM, based on LDH) was “high”. The LDH in series [1] (compound 100 nM, % lactic acid dehydrogenases activity in the medium, control set at zero) is 60%. In addition, the “toxicity to neurons” value in series [1] (human immortalized neurons) is given as “highly toxic”. Besides, the T-Tau with total Tau (T-Tau) was 38 pg/µg protein. Also, the P-Tau in series [2] is on record as 0.17 pg of P-Tau per μg of total protein.

Turning to `O=C(O)Cn1c(C(=O)O)cc2ccc3ccccc3c21` [Inhibitor 1], the LDH in series [1] (human, 24 h, 100 nM) stood at 3%. In addition, the T-Tau in the series with total Tau (T-Tau) is 65 pg/µg protein. In addition, the P-Tau in series [2] is reported as 0.30 pg of P-Tau per μg of total protein. Take `O=P(O)(O)C(Nc1ncnc2sc(-c3ccc(OC4CC4)cc3)cc12)P(=O)(O)O` [Example 11-1, (((6-(4-cyclopropoxyphenyl)thieno[2,3-d]pyrimidin-4-yl)amino)methylene)diphosphonic acid]: the LDH in series [1] (human, 24 h, 100 nM) was determined as 0%. Besides, the T-Tau in the series on total Tau (T-Tau) came to 31 pg/µg protein. Further, in series [2], the P-Tau is recorded as 0.30 pg of P-Tau per μg of total protein and the “Ratio P/T” value was 0.007. As for `Cc1ccc(-c2cc3c(N[C@H](Cc4ccccc4)C(=O)O)ncnc3s2)cc1` [Example 33-1], on human recombinant FPPS, the IC50 worked out at 40 µM. On to `O=P(O)(O)C(Nc1ncnc2sc(-c3ccc(C4CC4)cc3)cc12)P(=O)(O)O` [Example 7-1, (((6-(4-cyclopropylphenyl)thieno[2,3-d]pyrimidin-4-yl)amino)methylene)diphosphonic acid], for which the IC50 on human recombinant FPPS stood at 0.036 µM. In the case of `Cc1ccc(-c2cc3c(NC(c4ccccc4)P(=O)(O)O)ncnc3s2)cc1` (stereo not drawn) [Example 36-1, (phenyl((6-(p-tolyl)thieno[2,3-d]pyrimidin-4-yl)amino)methyl)phosphonic acid], on human recombinant FPPS, the IC50 was 4.2 µM.

On to `COc1ccc(-c2cc3c(NC(P(=O)(O)O)P(=O)(O)O)ncnc3s2)cc1` [Example 8-1, (((6-(4-methoxyphenyl)thieno[2,3-d]pyrimidin-4-yl)amino)methylene)diphosphonic acid], for which the 50% inhibitory concentration (IC50) at human recombinant FPPS (setting [3]) amounted to 0.015 µM. The same measure, in the same setting: the same measure for `Cc1ccc(-c2cc3c(NCP(=O)(O)O)ncnc3s2)cc1` [Example 18-1, (((6-(p-tolyl)thieno[2,3-d]pyrimidin-4-yl)amino)methyl)phosphonic acid]: 4.5 µM.

As usually defined, the IC50 is the concentration needed to halve the response being measured.
